Laboratory results from US6180634A, “Combination therapy for the treatment of AIDS” (priority 1998, dated 2001).
Read-outs that look alike come from different tables or passages of the source.

Key:
[1] = test system: wild-type HIV-1; assay: microbe, parasite or virus in culture; format: cell-based
[2] = Pharmacokinetic Study of Compound A Alone and in Combination with Indinavir in Healthy Human Males (Example 11); format: in vivo
Protocol: A double-blind, single-rising dose, alternating two-panel, four-period, placebo-controlled study was conducted for Compound A alone and in combination with Indinavir in healthy adult males in the fasted state. […] All of the doses of Compound A were administered as the sulfate salt form of Compound A. All of the Compound A doses were oral suspensions of the sulfate salt form in sterile water, except that the 600-mg doses administered to Panel B in the fourth period were tablets. Indinavir was administered in the form of CRIXIVAN® capsules. The safety of the subjects was monitored prior and subsequent to dosing by clinical adverse event reporting, measurement of vital signs, physical examinations, blood and urine laboratory safety tests, and ECGs. Plasma concentrations of Compound A were determined predose and at 0.5, 1, 1.5, 2, 3, 4, 6, 8, 12, 16, 20, 24, 30, 36 and 48 hours following each single dose in each period, using a reverse-phase HPLC column switching method with fluorescence detection.

[3] = Pharmacokinetic Study in Healthy Human Males of Compound A in Combination with Indinavir with and without Fasting (Example 12); format: in vivo; details: co-administered with Indinavir, with food vs without food
Protocol: All of the subjects received the regimen once in the fasted state and once with a high-fat breakfast. The two single-dose treatments (fasted, fed) were administered in randomized crossover fashion, separated by one week. For treatments with food a breakfast consisting of two eggs, two strips of bacon, toast with two pats of butter (2×12.5 g), 120 g of fried potatoes and 240 ml of whole milk were consumed in no more than 15 minutes, and the test medication was administered within 5 minutes after completion of the breakfast.
All of the doses of Compound A were administered as the sulfate salt form of Compound A. All of the Compound A doses were tablets containing 200 mg of Compound A. Other ingredients in the tablets included microcrystalline cellulose (Avicel PH 101), mannitol SD 200, croscarmellose sodium, hydroxypropyl cellulose and magnesium stearate. […]
The safety of the subjects was monitored prior and subsequent to dosing by clinical adverse event reporting, measurement of vital signs, physical examinations, blood and urine laboratory safety tests, and ECGs. Plasma concentrations of Compound A were determined predose and at 0.5, 1, 1.5, 2, 3, 4, 6, 8, 12, 16, 20, 24, 30, 36 and 48 hours following each single dose in each period, using a reverse-phase HPLC column switching method with fluorescence detection.

[4] = Pharmacokinetic Study of Compound A in Healthy Human Males (Example 10); format: in vivo; details: 20 mg single oral dose, suspension, fasted
Protocol: A double-blind, single-rising dose, alternating two-panel, four-period, placebo-controlled study was conducted for Compound A in healthy adult males in the fasted state. Single doses of 20, 50, 100, 200, 400, 800 and 1200 mg of Compound A, or placebo, were administered as an oral suspension of the sulfate salt form of Compound A in sterile water. Each subject received increasing single oral doses of Compound A or placebo during each of the four treatment periods in alternate panels. Panel A dosage levels were 20, 100, 400 mg, and 400 mg with food. Panel B dosage levels were 50, 200, 800 and 1200 mg. For each period, 6 subjects received Compound A and 2 subjects received placebo as allocated by a randomized schedule. In Panel A, subjects who received 400 mg of Compound A also received 400 mg of Compound A with food. The safety of the subjects was monitored prior and subsequent to dosing by clinical adverse event reporting, measurement of vital signs, physical examinations, blood and urine laboratory safety tests, and ECGs. Plasma concentrations of Compound A were determined predose and at 0.5, 1, 1.5, 2, 3, 4, 6, 10, 12, 24, 32 and 48 hours following each single dose in each period, using a reverse-phase HPLC column switching method with fluorescence detection.

[5] = administration to humans, plasma concentrations (general statements); format: in vivo, human
From the text: Compound (b) is preferably selected from the group consisting of Indinavir, Ritonavir, and pharmaceutically acceptable salts thereof, and is most preferably Indinavir or a pharmaceutically acceptable salt or ester thereof. Particularly preferred is the composition in which (a) is the sulfate salt of Compound A and (b) is the sulfate salt of Indinavir. It has been discovered that the foregoing compounds of (b), when employed in combination with Compound A, can increase the plasma concentration of Compound A to a level having substantial antiviral activity.

[6] = 200 mg Compound A + 800 mg Indinavir relative to 200 mg Compound A alone
[7] = Compound A in combination with Indinavir

AUC increase (times higher) [2, 6]	C8 hrs increase (times higher) [2, 6] [×]	Cmax increase (times higher) [2, 6]	AUC increase (fold higher) ([2]; 600 mg Compound A + 800 mg Indinavir relative to Compound A alone)	Compound A plasma levels, fed versus fasted [3]	plasma concentrations [4]	inter-individual variation in the plasma levels ([5]; humans, Compound A alone, vs Indinavir)	plasma concentrations of Compound A ([5]; humans, relative to comparable doses of Indinavir)	Compound	IC95 ([1]; Human immunodeficiency virus 1, wild-type HIV-1, Cell Spread Assay, read-out: CIC95) [µM]	potency relative to Indinavir ([1]; wild type HIV-1, in vitro)	effect of Indinavir on inter-individual variation of Compound A plasma concentrations [5, 7]	effect of Indinavir on plasma concentrations of Compound A [5, 7]	plasma concentration increase with successively higher doses ([5]; humans, dose proportionality)	IC95 ([1]; Human immunodeficiency virus 1, read-out: CIC95) [µM]
about 30 ×	~46	about 19 ×	about 18 fold	higher Compound A plasma levels	below the assay quantification limit	significant inter-individual variation	very low plasma concentrations	CC(C)(C)NC(=O)[C@@H]1CN(Cc2cc3ccccc3o2)CCN1C[C@@H](O)C[C@@H](Cc1ccccc1)C(=O)N[C@H]1c2ccccc2C[C@H]1O [Compound A, N-(2(R)-hydroxy-1(S)-indanyl)-2(R)-phenylmethyl-4-(S)-hydroxy-5-(1-(4-(2-benzo[b]furanylmethyl)-2(S)-N'-(t-butylcarboxamido)-piperazinyl))-pentaneamide]	0.025	approximately two-fold greater potency than Indinavir	markedly reduces inter-individual variation	substantially increase the plasma concentrations	greater than proportional increases in plasma concentrations	
								CC(C)(C)NC(=O)[C@@H]1CN(Cc2cccnc2)CCN1C[C@@H](O)C[C@@H](Cc1ccccc1)C(=O)N[C@H]1c2ccccc2C[C@H]1O [Indinavir, N-(2(R)-hydroxy-1(S)-indanyl)2(R)-phenylmethyl-4-(S)-hydroxy-5-(1-(4-(3-pyridylmethyl)-2(S)-N'-(t-butylcarboxamido)-piperazinyl))-pentaneamide, reference compound]						0.05
